In one assay the test system is HCV GT1a(H77) replicon. As to the kind of experiment: HCV replicon luciferase reporter assay, genotype 1a. The following applies: Hepatitis C virus, 72 h, HUH-7 cells, Renilla luciferase, 3 days incubation, read-out: LE_1a (EC50, range). In kind it is cell-based, HCV genotype 1a. The method in brief: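 Huh-7 cells stably carried a GT1a(H77) Renilla luciferase replicon with NS3 P1496L and NS5A S2204I adaptive mutations. Luminescence was read after 2 h with 7.5 μM EnduRen, and EC50 came from a four-parameter logistic fit; CC50 came from multiplexed Cell Titer-Blue (8 h).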

The test system of the next assay is HCV GT1b(Con1) replicon. As to the kind of experiment: HCV replicon luciferase reporter assay, genotype 1b. In kind it is cell-based, HCV genotype 1b. Conditions: Hepatitis C virus, 72 h, HUH-7 cells, Renilla luciferase, 3 days incubation, read-out: LE_1b (EC50, range). The method, boiled down:
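HUH-7 cells stably carrying a Con1 GT1b replicon with Renilla luciferase and Ser1179Ile adaptive mutation; 3.0×10^3 cells/well, DMEM 4% FCS, 0.5% DMSO, twenty-point 3-fold titration, 3 days 37 °C. Luminescence 2 h after 7.5 μM EnduRen; EC50 by four-parameter logistic fit. CC50 from multiplexed Cell Titer-Blue fluorescence (8 h).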

As for `CC[C@@H]1O[C@H](C)CC/C=C\[C@@H]2C[C@@]2(C(=O)NS(=O)(=O)C2(C)CC2)NC(=O)[C@@H]2C[C@@H](Oc3cc(-c4ccc(OC(C)C)cc4)nc(-c4cscn4)c3)CN2C(=O)[C@H]1NC(=O)OC1(C(F)(F)F)CCCOC1` (stereo partly drawn) [Compound 1036, 3-(trifluoromethyl)tetrahydro-2H-pyran-3-yl ((2R,6S,7S,9R,13aS,14aR,16aS,Z)-7-ethyl-2-((2-(4-isopropoxyphenyl)-6-(thiazol-4-yl)pyridin-4-yl)oxy)-9-methyl-14a-(((1-methylcyclopropyl)sulfonyl)carbamoyl)-5,16-dioxo-2,3,5,6,7,9,10,11,13a,14,14a,15,16,16a-tetradecahydro-1H-cyclopropa[i]pyrrolo[1,2-e][1,5,8]oxadiazacyclopentadecin-6-yl)carbamate], the EC50 with HCV GT1a(H77) replicon fell in the range of 0.51 to 1 nM; in the assay with HCV GT1b(Con1) replicon, 0.1 to 0.5 nM.
Consider `CC[C@@H]1O[C@H](C)CC/C=C\[C@@H]2C[C@@]2(C(=O)NS(=O)(=O)C2(C)CC2)NC(=O)[C@@H]2C[C@@H](Oc3cc(-c4ccc(OC(C)C)cc4)nc(-c4ccccn4)c3)CN2C(=O)[C@H]1NC(=O)OC1(C(F)(F)F)CCCOC1` (stereo partly drawn) [Compound 1037, 3-(trifluoromethyl)tetrahydro-2H-pyran-3-yl ((2R,6S,7S,9R,13aS,14aR,16aS,Z)-7-ethyl-2-((6-(4-isopropoxyphenyl)-[2,2′-bipyridin]-4-yl)oxy)-9-methyl-14a-(((1-methylcyclopropyl)sulfonyl)carbamoyl)-5,16-dioxo-2,3,5,6,7,9,10,11,13a,14,14a,15,16,16a-tetradecahydro-1H-cyclopropa[i]pyrrolo[1,2-e][1,5,8]oxadiazacyclopentadecin-6-yl)carbamate], for which the values for the EC50 with HCV GT1a(H77) replicon and in the assay with HCV GT1b(Con1) replicon were 1.01 to 5 nM and 0.1 to 0.5 nM, respectively.
On the same counts, the results for `CC[C@@H]1OCCC/C=C\[C@@H]2C[C@@]2(C(=O)NS(=O)(=O)C2(C)CC2)NC(=O)[C@@H]2C[C@@H](Oc3cc(-c4ccc(OC(C)C)cc4)nc(-c4cncs4)c3)CN2C(=O)[C@H]1NC(=O)OC1(C(F)(F)F)CCCOC1` (stereo partly drawn) [Compound 1038, 3-(trifluoromethyl)tetrahydro-2H-pyran-3-yl ((2R,6S,7S,13aS,14aR,16aS,Z)-7-ethyl-2-((2-(4-isopropoxyphenyl)-6-(thiazol-5-yl)pyridin-4-yl)oxy)-14a-(((1-methylcyclopropyl)sulfonyl)carbamoyl)-5,16-dioxo-2,3,5,6,7,9,10,11,13a,14,14a,15,16,16a-tetradecahydro-1H-cyclopropa[i]pyrrolo[1,2-e][1,5,8]oxadiazacyclopentadecin-6-yl)carbamate] are 1.01 to 5 nM and 0.51 to 1 nM.
As for `CC[C@@H]1O[C@H](C)CC/C=C\[C@@H]2C[C@@]2(C(=O)NS(=O)(=O)C2(C)CC2)NC(=O)[C@@H]2C[C@@H](Oc3cc(-c4ccc(C(F)(F)F)cc4)nc(-c4nccs4)c3)CN2C(=O)[C@H]1NC(=O)OC(C)(C)C(F)(F)F` [Compound 1039, 1,1,1-trifluoro-2-methylpropan-2-yl ((2R,6S,7S,9R,13aS,14aR,16aS,Z)-7-ethyl-9-methyl-14a-(((1-methylcyclopropyl)sulfonyl)carbamoyl)-5,16-dioxo-2-((2-(thiazol-2-yl)-6-(4-(trifluoromethyl)phenyl)pyridin-4-yl)oxy)-2,3,5,6,7,9,10,11,13a,14,14a,15,16,16a-tetradecahydro-1H-cyclopropa[i]pyrrolo[1,2-e][1,5,8]oxadiazacyclopentadecin-6-yl)carbamate], the EC50 in the assay with HCV GT1a(H77) replicon and with HCV GT1b(Con1) replicon was 1.01 to 5 nM throughout.

The record behind these values is patent US9334279B2, “Hepatitis C virus inhibitors” (BRISTOL-MYERS SQUIBB COMPANY, priority 2012, dated 2016).
